Source: patent US9447044B2, “Thioaryl derivatives as GPR120 agonists” (LG LIFE SCIENCES LTD., priority 2012, dated 2016)

Biological target: T1, hGPR120 (Homo sapiens, UniProt Q5NUL3)
T1 construct: expressed in transfected cells; host or cells: CHO-K1
T1 sequence (Q5NUL3 1-361): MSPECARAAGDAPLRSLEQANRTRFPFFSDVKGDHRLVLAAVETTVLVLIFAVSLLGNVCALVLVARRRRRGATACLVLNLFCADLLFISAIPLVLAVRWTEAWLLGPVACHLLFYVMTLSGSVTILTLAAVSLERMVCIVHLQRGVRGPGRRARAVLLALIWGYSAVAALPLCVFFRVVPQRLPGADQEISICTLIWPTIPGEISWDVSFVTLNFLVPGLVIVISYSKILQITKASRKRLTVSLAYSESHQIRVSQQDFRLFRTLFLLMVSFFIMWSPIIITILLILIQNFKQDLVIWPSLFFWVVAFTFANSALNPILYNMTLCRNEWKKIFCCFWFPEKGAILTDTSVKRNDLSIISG
Assay: Measurement of activity of GPR120 agonist (cell-based assay), calcium fluorescence
Settings: CHO-K1 cells expressing Ga16 and hGPR120, Calcium 5 dye fluorescence
Description: CHO-K1 cells expressing Ga16 and hGPR120 were dispensed into each well of a 96-well plate (3×10^4 cells/100 μl/well) and then incubated in 5% CO2, 37° C. incubator for 18 hours. Each well was treated with 100 μl of Calcium 5 dye (Molecular Devices) solution including 2% DMSO and then incubated in 5% CO2, 37° C. incubator for 1 hour. Serially diluted GPR120 agonists were prepared to a final concentration of 0.5% DMSO in a 96-well plate. Each well was treated with 50 μl of the agonist compounds using Plexstation II, and then fluorescence was measured at Ex 485 nm, Em 525 nm.
Fluorescence increased by the serially diluted GPR120 agonists is calculated as a relative percent (%) value based on the fluorescence represented by the treatment of 0.1% DMSO only. […] The calculation of measurement was carried out by using statistical software (Prizm).
Activity is denoted based on the following criteria: A=>20 μM, B=[…], C=2˜0.2 μM, D=<0.2 μM

Q: With `O=C(O)CCc1cc(F)c(OCc2cccnc2SC2CCC2)c(F)c1` [Example 23, 3-[4-(2-cyclobutylsulfanyl-pyridin-3-ylmethoxy)-3,5-difluoro-phenyl]-propionic acid] as the compound, how does the EC50 (activity class) read?
A: < 200 nM

Q: `O=C(O)CCc1cc(F)c(OCc2cccc(SC3CCCCC3)n2)c(F)c1` [Example 31] was tested. Which EC50 (activity class) did it give?
A: < 200 nM

Q: `O=C(O)C1CC1c1cc(F)c(OCc2cccc(SC3CCC3)n2)c(F)c1` (stereo not shown) [Example 75, 2-[4-(6-cyclobutylsulfanyl-pyridin-2-ylmethoxy)-3,5-difluoro-phenyl]-cyclopropane carboxylic acid] was tested. Which EC50 (activity class) did it give?
A: < 200 nM

Q: How did the EC50 (activity class) turn out when `O=C(O)CCc1ccc(NCc2cccc(SC3CCCC3)n2)cc1` [Example 172, 3-{4-[(6-cyclopentylsulfanyl-pyridin-2-ylmethyl)-amino]-phenyl]-propionic acid] was run?
A: 2000 to 20000 nM

Q: Which EC50 (activity class) does the source give for `CC(C)Sc1ncccc1COc1ccc(CCC(=O)O)cc1F` [Example 6, 3-[3-fluoro-4-(2-isopropylsulfanyl-pyridin-3-ylmethoxy)-phenyl]-propionic acid] here?
A: < 200 nM

Q: Which EC50 (activity class) does the source give for `CC(C)Sc1ncccc1COc1ccc(CCC(=O)O)c(F)c1` [Example 7, 3-[2-fluoro-4-(2-isopropylsulfanyl-pyridin-3-ylmethoxy)-phenyl]-propionic acid] here?
A: < 200 nM

Q: `CCCSc1ncccc1COc1ccc(CC(C)C(=O)O)cc1Cl` (stereo not shown) [Example 92, 3-[3-chloro-4-(2-propylsulfanyl-pyridin-3-ylmethoxy)-phenyl]-2-methyl-propionic acid] was tested. Which EC50 (activity class) did it give?
A: < 200 nM

Q: `O=C(O)CCc1ccc(OCc2cccnc2SC2CCCC2)cc1F` [Example 173] was tested. Which EC50 (activity class) did it give?
A: < 200 nM

Q: `O=C(O)CCc1ccc(OCc2cccnc2SC2CCCC2)c(F)c1` [Example 146, 3-[4-(2-cyclopentylsulfanyl-pyridin-3-ylmethoxy)-3-fluoro-phenyl]-propionic acid] was tested. Which EC50 (activity class) did it give?
A: < 200 nM

Q: Which EC50 (activity class) does the source give for `Cc1cnc(SC(C)C)c(COc2ccc(CC(C)C(=O)O)cc2)c1` (stereo not shown) [Example 3, 3-[4-(2-isopropylsulfanyl-5-methyl-pyridin-3-ylmethoxy)-phenyl]-2-methyl-propionic acid] here?
A: 200 to 2000 nM

Q: How did the EC50 (numeric value) turn out when `O=C(O)CCc1cc(F)c(OCc2cccnc2SC2CCCC2)c(F)c1` [Example 12, 3-[4-(2-cyclopentylsulfanyl-pyridin-3-ylmethoxy)-3,5-difluoro-phenyl]-propionic acid] was run?
A: 58 nM

Q: How did the EC50 (activity class) turn out when `O=C(O)C[C@H]1COc2cc(OCc3cccnc3SC3CCCC3)ccc21` [Example 82, [(R)-6-(2-cyclopentylsulfanyl-pyridin-3-ylmethoxy)-2,3-dihydro-benzofuran-3-yl]-acetic acid] was run?
A: < 200 nM

Q: `CCC(C)Sc1cccc(COc2c(F)cc(CC(C)C(=O)O)cc2F)n1` (stereo not shown) [Example 48, 3-[4-(6-sec-butylsulfanyl-pyridin-2-ylmethoxy)-3,5-difluoro-phenyl]-2-methyl-propionic acid] was tested. Which EC50 (activity class) did it give?
A: 200 to 2000 nM

Q: With `O=C(O)CCc1ccc(OCc2cccc(SCC3CC3)n2)cc1F` [Example 179] as the compound, how does the EC50 (activity class) read?
A: 200 to 2000 nM

Q: With `CCCSc1ncccc1COc1ccc(CCC(=O)O)cc1F` [Example 144, 3-[3-fluoro-4-(2-propylsulfanyl-pyridin-3-ylmethoxy)-phenyl]-propionic acid] as the compound, how does the EC50 (activity class) read?
A: < 200 nM

Q: Which EC50 (activity class) does the source give for `O=C(O)C1CC1c1ccc(OCc2cccnc2SCC2CC2)c(Cl)c1` (stereo not shown) [Example 107, 2-[3-chloro-4-(2-cyclopropylmethylsulfanyl-pyridin-3-ylmethoxy)-phenyl]-cyclopropane carboxylic acid] here?
A: < 200 nM

Q: How did the EC50 (activity class) turn out when `CC(C)Sc1ncccc1COc1c(F)cc(C2CC2C(=O)O)cc1F` (stereo not shown) [Example 65, 2-[3,5-difluoro-4-(2-isopropylsulfanyl-pyridin-3-ylmethoxy)-phenyl]-cyclopropane carboxylic acid] was run?
A: < 200 nM

Q: For `O=C(O)C1CC1c1ccc(OCc2cccnc2SC2CCCC2)c(F)c1` (single isomer, unassigned) [Example 130, 2-[4-(2-cyclopentylsulfanyl-pyridin-3-ylmethoxy)-3-fluoro-phenyl]-cyclopropane carboxylic acid], which EC50 (activity class) is on record?
A: 200 to 2000 nM

Q: For `O=C(O)C1CC1c1ccc(OCc2cccc(SC3CCCC3)n2)c(F)c1` (single isomer, unassigned) [Example 168, 2-[4-(6-cyclopentylsulfanyl-pyridin-2-ylmethoxy)-3-fluoro-phenyl]-cyclopropane carboxylic acid], which EC50 (activity class) is on record?
A: < 200 nM

Q: `CC(C)Sc1cccc(COc2c(F)cc(CCC(=O)O)cc2F)n1` [Example 33, 3-[3,5-difluoro-4-(6-isopropylsulfanyl-pyridin-2-ylmethoxy)-phenyl]-propionic acid] was tested. Which EC50 (activity class) did it give?
A: < 200 nM

Q: How did the EC50 (activity class) turn out when `O=C(O)Cc1coc2c(F)c(OCc3cccnc3SC3CCCC3)c(F)cc12` [Example 122, [6-(2-cyclopentylsulfanyl-pyridin-3-ylmethoxy)-5,7-difluoro-benzofuran-3-yl]-acetic acid] was run?
A: < 200 nM

Q: `CC(Cc1ccc(OCc2cccnc2SC2CCCC2)cc1)C(=O)O` (stereo not shown) [Example 25, 3-[4-(2-cyclopentylsulfanyl-pyridin-3-ylmethoxy)-phenyl]-2-methyl-propionic acid] was tested. Which EC50 (activity class) did it give?
A: < 200 nM

Q: Which EC50 (activity class) does the source give for `O=C(O)C1CC1Cc1cc(F)c(OCc2cccc(SC3CCCC3)n2)c(F)c1` (stereo not shown) [Example 110, 2-[4-(6-cyclopentylsulfanyl-pyridin-2-ylmethoxy)-3,5-difluoro-benzyl]-cyclopropane carboxylic acid] here?
A: 200 to 2000 nM

Q: With `CC(C)Sc1ncccc1COc1ccc(CC(C)C(=O)O)cc1F` (stereo not shown) [Example 60, 3-[3-fluoro-4-(2-isopropylsulfanyl-pyridin-3-ylmethoxy)-phenyl]-2-methyl-propionic acid] as the compound, how does the EC50 (activity class) read?
A: < 200 nM

Q: For `COc1ccc(COc2c(F)cc(CCC(=O)O)cc2F)c(SC2CCCC2)n1` [Example 76, 3-[4-(2-cyclopentylsulfanyl-6-methoxy-pyridin-3-ylmethoxy)-3,5-difluoro-phenyl]-propionic acid], which EC50 (activity class) is on record?
A: 200 to 2000 nM

Q: How did the EC50 (activity class) turn out when `O=C(O)C1CC1c1ccc(OCc2cccc(SC3CCCC3)n2)c(F)c1` (single isomer, unassigned) [Example 134, 2-[4-(6-cyclopentylsulfanyl-pyridin-2-ylmethoxy)-3-fluoro-phenyl]-cyclopropane carboxylic acid] was run?
A: < 200 nM

Q: How did the EC50 (activity class) turn out when `O=C(O)C1CC1c1ccc(OCc2cccnc2SCC2CC2)c(F)c1` (stereo not shown) [Example 84, 2-[4-(2-cyclopropylmethylsulfanyl-pyridin-3-ylmethoxy)-3-fluoro-phenyl]-cyclopropane carboxylic acid] was run?
A: < 200 nM

Q: With `O=C(O)C1CC1c1ccc(OCc2cccnc2SC2CCCC2)c(F)c1` (stereo not shown) [Example 87, 2-[4-(2-cyclopentylsulfanyl-pyridin-3-ylmethoxy)-3-fluoro-phenyl]-cyclopropane carboxylic acid] as the compound, how does the EC50 (numeric value) read?
A: 64000 nM

Q: `O=C(O)CCc1cc(F)c(OCc2cccnc2Sc2ccccc2)c(F)c1` [Example 15, 3-[3,5-difluoro-4-(2-phenylsulfanyl-pyridin-3-ylmethoxy)-phenyl]-propionic acid] was tested. Which EC50 (activity class) did it give?
A: 200 to 2000 nM

Q: `CC(C)Sc1ncccc1COc1c(F)cc(CCC(=O)O)cc1F` [Example 1, 3-[3,5-difluoro-4-(2-isopropylsulfanyl-pyridin-3-ylmethoxy)-phenyl]-propionic acid] was tested. Which EC50 (activity class) did it give?
A: < 200 nM

Q: How did the EC50 (activity class) turn out when `O=C(O)C1CC1Cc1cc(F)c(OCc2cccc(SC3CCC3)n2)c(F)c1` (stereo not shown) [Example 115, 2-[4-(6-cyclobutylsulfanyl-pyridin-2-ylmethoxy)-3,5-difluoro-benzyl]-cyclopropane carboxylic acid] was run?
A: < 200 nM

Q: `CCCSc1ncccc1COc1c(F)cc(CC2CC2C(=O)O)cc1F` (stereo not shown) [Example 117, 2-[3,5-difluoro-4-(2-propylsulfanyl-pyridin-3-ylmethoxy)-benzyl]-cyclopropane carboxylic acid] was tested. Which EC50 (numeric value) did it give?
A: 108 nM

Q: How did the EC50 (activity class) turn out when `O=C(O)CCc1ccc(OCc2cccnc2SCC2CC2)c(Cl)c1` [Example 157, 3-[3-chloro-4-(2-cyclopropylmethylsulfanyl-pyridin-3-ylmethoxy)-phenyl]-propionic acid] was run?
A: < 200 nM

Q: `O=C(O)C1CC1c1ccc(OCc2cccnc2SCC2CC2)c(F)c1` (single isomer, unassigned) [Example 165, 2-[4-(2-cyclopropylmethylsulfanyl-pyridin-3-ylmethoxy)-3-fluoro-phenyl]-cyclopropane carboxylic acid] was tested. Which EC50 (activity class) did it give?
A: < 200 nM

Q: Which EC50 (activity class) does the source give for `CC(C)Sc1ncccc1COc1ccc(C2CC2C(=O)O)c(Cl)c1` (stereo not shown) [Example 89, 2-[2-chloro-4-(2-isopropylsulfanyl-pyridin-3-ylmethoxy)-phenyl]-cyclopropane carboxylic acid] here?
A: 200 to 2000 nM

Q: How did the EC50 (activity class) turn out when `COc1cc(CCC(=O)O)ccc1OCc1cccnc1SC1CCCC1` [Example 58, 3-[4-(2-cyclopentylsulfanyl-pyridin-3-ylmethoxy)-3-methoxy-phenyl]-propionic acid] was run?
A: < 200 nM

Q: For `O=C(O)C1CC1c1cc(F)c(OCc2cccnc2SCC2CC2)c(F)c1` (single isomer, unassigned) [Example 136, 2-[4-(2-cyclopropylmethylsulfanyl-pyridin-3-ylmethoxy)-3,5-difluoro-phenyl]-cyclopropane carboxylic acid], which EC50 (activity class) is on record?
A: 200 to 2000 nM
